Measurements: ChEMBL document CHEMBL5385890, “A JAK tyrosine kinase and pseudokinase Co-inhibition strategy combines enhanced potency and on-demand activation” (Eur J Med Chem, 2023)
pIC50: −log10 of the molar value. Activity calls are given as the source filed them. No cut-off for these calls is given here.

Tests used:
[1] = Cytotoxicity against HUVEC cells assessed as inhibition of cell growth; type: toxicity, cell-based; conditions: human
[2] = Cytotoxicity against HUVEC cells assessed as inhibition of cell growth incubated in presence of 3-cyclopropyl-1-(3-{5-[(morpholin-4-yl)methyl]-1H-1,3-benzodiazol-2-yl}-1H-pyrazol-4-yl)urea; type: toxicity, cell-based; conditions: human
HEL [3] = assay: Cytotoxicity against HEL cells assessed as inhibition of cell growth irradiated with 450 nm light and incubated in presence of 3-cyclopropyl-1-(3-{5-[(morpholin-4-yl)methyl]-1H-1,3-benzodiazol-2-yl}-1H-pyrazol-4-yl)urea; type: functional, cell-based; conditions: Homo sapiens, light or radiation study
HEL [4] = assay: Cytotoxicity against HEL cells assessed as inhibition of cell growth incubated under dark condition in presence of 3-cyclopropyl-1-(3-{5-[(morpholin-4-yl)methyl]-1H-1,3-benzodiazol-2-yl}-1H-pyrazol-4-yl)urea; type: functional, cell-based; conditions: Homo sapiens
HEL [5] = assay: Cytotoxicity against HEL cells assessed as inhibition of cell growth incubated under hypoxic condition in presence of 3-cyclopropyl-1-(3-{5-[(morpholin-4-yl)methyl]-1H-1,3-benzodiazol-2-yl}-1H-pyrazol-4-yl)urea; type: functional, cell-based; conditions: Homo sapiens
HEL [6] = assay: Antitumor activity against HEL cells xenografted in Balb/c nude mouse assessed as tumor growth inhibition at 32.5 mg/kg, ip administered once daily for 14 consecutive days relative to control; type: functional, Homo sapiens; conditions: 336 h, time 14 day, read-out: TGI
HEL [7] = assay: Antitumor activity against HEL cells xenografted in Balb/c nude mouse assessed as tumor growth inhibition at 32.5 mg/kg, ip administered once daily for 14 consecutive days in presence of 3-cyclopropyl-1-(3-{5-[(morpholin-4-yl)methyl]-1H-1,3-benzodiazol-2-yl}-1H-pyrazol-4-yl)urea relative to control; type: functional, Homo sapiens; conditions: 336 h, time 14 day, read-out: TGI
HEL [8] = assay: Antitumor activity against HEL cells xenografted in Balb/c nude mouse assessed as induction of apoptosis in tumor at 32.5 mg/kg, ip administered once daily for 14 consecutive days in presence of 3-cyclopropyl-1-(3-{5-[(morpholin-4-yl)methyl]-1H-1,3-benzodiazol-2-yl}-1H-pyrazol-4-yl)urea by TUNEL assay relative to control; type: functional, organism-based; conditions: Homo sapiens, time 14.0 day
BaF3 = assay: Cytotoxicity against mouse BaF3 cells harboring EPOR JAK2 V617F mutant; type: functional, cell-based
HEL [9] = assay: Cytotoxicity against HEL cells assessed as inhibition of cell growth; type: functional, cell-based; conditions: Homo sapiens
HEL [10] = assay: Cytotoxicity against HEL cells assessed as inhibition of cell growth incubated in presence of 3-cyclopropyl-1-(3-{5-[(morpholin-4-yl)methyl]-1H-1,3-benzodiazol-2-yl}-1H-pyrazol-4-yl)urea; type: functional, cell-based; conditions: Homo sapiens
HEL [11] = assay: Cytotoxicity against HEL cells assessed as inhibition of cell growth incubated in presence of decernotinib; type: functional, cell-based; conditions: Homo sapiens
HEL [12] = assay: Cytotoxicity against HEL cells assessed as inhibition of cell growth incubated in presence of tofacitinib; type: functional, cell-based; conditions: Homo sapiens
HEL [13] = assay: Cytotoxicity against HEL cells assessed as inhibition of cell growth incubated in presence of ruxolitinib; type: functional, cell-based; conditions: Homo sapiens
HEL [14] = assay: Synergistic cytotoxicity against HEL cells assessed as combination index for 25% activity in presence of 3-cyclopropyl-1-(3-{5-[(morpholin-4-yl)methyl]-1H-1,3-benzodiazol-2-yl}-1H-pyrazol-4-yl)urea; type: functional, Homo sapiens
HEL [15] = assay: Synergistic cytotoxicity against HEL cells assessed as combination index for 25% activity in presence of decernotinib; type: functional, Homo sapiens
HEL [16] = assay: Synergistic cytotoxicity against HEL cells assessed as combination index for 25% activity in presence of tofacitinib; type: functional, Homo sapiens
HEL [17] = assay: Synergistic cytotoxicity against HEL cells assessed as combination index for 25% activity in presence of ruxolitinib; type: functional, Homo sapiens
HEL [18] = assay: Synergistic cytotoxicity against HEL cells assessed as combination index for 50% activity in presence of 3-cyclopropyl-1-(3-{5-[(morpholin-4-yl)methyl]-1H-1,3-benzodiazol-2-yl}-1H-pyrazol-4-yl)urea; type: functional, Homo sapiens
HEL [19] = assay: Synergistic cytotoxicity against HEL cells assessed as combination index for 50% activity in presence of decernotinib; type: functional, Homo sapiens
HEL [20] = assay: Synergistic cytotoxicity against HEL cells assessed as combination index for 50% activity in presence of tofacitinib; type: functional, Homo sapiens
HEL [21] = assay: Synergistic cytotoxicity against HEL cells assessed as combination index for 50% activity in presence of ruxolitinib; type: functional, Homo sapiens
HEL [22] = assay: Synergistic cytotoxicity against HEL cells assessed as combination index for 75% activity in presence of 3-cyclopropyl-1-(3-{5-[(morpholin-4-yl)methyl]-1H-1,3-benzodiazol-2-yl}-1H-pyrazol-4-yl)urea; type: functional, Homo sapiens
HEL [23] = assay: Synergistic cytotoxicity against HEL cells assessed as combination index for 75% activity in presence of decernotinib; type: functional, Homo sapiens
HEL [24] = assay: Synergistic cytotoxicity against HEL cells assessed as combination index for 75% activity in presence of tofacitinib; type: functional, Homo sapiens
HEL [25] = assay: Synergistic cytotoxicity against HEL cells assessed as combination index for 75% activity in presence of ruxolitinib; type: functional, Homo sapiens
HEL [26] = assay: Synergistic cytotoxicity against HEL cells assessed as combination index for 95% activity in presence of 3-cyclopropyl-1-(3-{5-[(morpholin-4-yl)methyl]-1H-1,3-benzodiazol-2-yl}-1H-pyrazol-4-yl)urea; type: functional, Homo sapiens
HEL [27] = assay: Synergistic cytotoxicity against HEL cells assessed as combination index for 95% activity in presence of decernotinib; type: functional, Homo sapiens
HEL [28] = assay: Synergistic cytotoxicity against HEL cells assessed as combination index for 95% activity in presence of tofacitinib; type: functional, Homo sapiens
HEL [29] = assay: Synergistic cytotoxicity against HEL cells assessed as combination index for 95% activity in presence of ruxolitinib; type: functional, Homo sapiens
HEL [30] = assay: Cytotoxicity against HEL cells assessed as inhibition of cell growth at 100 uM relative to control; type: functional; conditions: Homo sapiens
HEL [31] = assay: Cytotoxicity against HEL cells assessed as inhibition of cell growth at 50 uM relative to control; type: functional; conditions: Homo sapiens
HEL [32] = assay: Cytotoxicity against HEL cells assessed as inhibition of cell growth at 25 uM relative to control; type: functional; conditions: Homo sapiens
HEL [33] = assay: Cytotoxicity against HEL cells assessed as inhibition of cell growth at 5 uM relative to control; type: functional; conditions: Homo sapiens
HEL [34] = assay: Cytotoxicity against HEL cells assessed as inhibition of cell growth at 1 uM relative to control; type: functional; conditions: Homo sapiens
HEL [35] = assay: Cytotoxicity against HEL cells assessed as inhibition of cell growth at 0.2 uM relative to control; type: functional; conditions: Homo sapiens
HEL [36] = assay: Cytotoxicity against HEL cells assessed as inhibition of cell growth at 0.04 uM relative to control; type: functional; conditions: Homo sapiens
HEL [37] = assay: Cytotoxicity against HEL cells assessed as inhibition of cell growth at 0.008 uM relative to control; type: functional; conditions: Homo sapiens
HEL [38] = assay: Cytotoxicity against HEL cells assessed as inhibition of cell growth at 0.0016 uM relative to control; type: functional; conditions: Homo sapiens

Cc1cnc(Nc2ccc(N3CCNCC3)cc2)nc1Nc1cccc(S(=O)(=O)NC(C)(C)C)c1
pIC50 [1]: 6.02 | pIC50 [2]: 5.75 | pIC50 (HEL [3]): 5.66 | pIC50 (HEL [4]): 5.85 | pIC50 (HEL [5]): 5.87 | inhibition in vivo at 32.5 mg/kg (HEL [6]): 62.3% | inhibition in vivo at 32.5 mg/kg (HEL [7]): 91.2% | Activity (HEL [8]): Active | pIC50 (BaF3): 6.56 | pIC50 (HEL [9]): 5.94 | pIC50 (HEL [10]): 6.26 | pIC50 (HEL [11]): 5.51 | pIC50 (HEL [12]): 5.82 | pIC50 (HEL [13]): 5.61 | CI25 (HEL [14]): 0.683 | CI25 (HEL [15]): 2.597 | CI25 (HEL [16]): 2.161 | CI25 (HEL [17]): 2.447 | CI50 (HEL [18]): 0.809 | CI50 (HEL [19]): 2.226 | CI50 (HEL [20]): 1.636 | CI50 (HEL [21]): 2.528 | CI75 (HEL [22]): 0.972 | CI75 (HEL [23]): 1.947 | CI75 (HEL [24]): 1.243 | CI75 (HEL [25]): 2.613 | CI95 (HEL [26]): 1.366 | CI95 (HEL [27]): 1.628 | CI95 (HEL [28]): 0.948 | CI95 (HEL [29]): 2.769 | inhibition at 100 µM (HEL [30]): 95.6% | inhibition at 50 µM (HEL [31]): 94.5% | inhibition at 25 µM (HEL [32]): 95% | inhibition at 5 µM (HEL [33]): 70.9% | inhibition at 1 µM (HEL [34]): 40.3% | inhibition at 0.2 µM (HEL [35]): 16.5% | inhibition at 0.04 µM (HEL [36]): 14.2% | inhibition at 0.008 µM (HEL [37]): -2.98% | inhibition at 0.0016 µM (HEL [38]): 3.19%
